Measured values reported in patent US20160045505A1, “COMPOUNDS AND COMPOSITIONS FOR THE TREATMENT OF PARASITIC DISEASES” (NOVARTIS AG, priority 2013, published 2016).
Like-named read-outs stand apart in the source and are kept apart here.

Tests used:
[1] = test system: L. donovani HU3 strain in mouse peritoneal macrophages; assay: Assay for proliferation of Leishmania parasites in infected mouse peritoneal macrophages (SybrGreen staining, high-content imaging, 5 days); format: cell-based, Leishmania donovani; conditions: L. donovani in mouse peritoneal macrophages, read-out: L. donovani Macrophage EC50
[2] = test system: Leishmania donovani axenic amastigote parasites; assay: Leishmania donovani axenic amastigote proliferation assay (Cell TiterGlo luminescence, 2 day incubation); format: cell-based; conditions: Leishmania donovani, read-out: L. donovani amastigotes EC50
[3] = test system: Trypanosoma cruzi amastigotes (Tulahuen strain expressing Lac-Z) cultured in 3T3 fibroblast cells; assay: microbe, parasite or virus in culture; format: cell-based; conditions: Trypanosoma cruzi, TULAHUEN, Fibroblast, T. cruzi amastigotes in 3T3 fibroblast cells; read-out: T cruzi EC50
[4] = Leishmania donovani, Peritoneal macrophage, inhibition of proliferation
[5] = axenic amastigotes, inhibition of proliferation
[6] = Leishmania donovani, Peritoneal macrophage

SMILES | EC50 [1, 4] [µM] | EC50 [2, 5] [µM] | also measured
CCN(CC)C(=O)Nc1ccc(Cl)c(-c2cn3cc(NC(=O)OC(C)C)cnc3n2)c1 [Compound 274] | 1.9 | 0.862 | 
CC(C)OC(=O)Nc1cnc2nc(-c3cc(Nc4cccnc4)ccc3F)cn2c1 [Compound 486] |  |  | EC50 [1, 6]: > 50 µM; EC50 ([2]; L. donovani axenic amastigotes): 16.1 µM; EC50 [3]: 1.45 µM
CC(C)OC(=O)Nc1cnc2nc(-c3cccc(NC(=O)N4CCCC4)c3)cn2c1 [Compound 5] | 4 | 1.08 | 
CC(C)OC(=O)Nc1cnc2nc(-c3cc(NC(=O)c4ccno4)ccc3F)cn2c1 [Compound 72] | 8.39 | 0.764 | 
Cc1ncc(C(=O)Nc2ccc(F)c(-c3cn4cc(NC(=O)OC(C)C)cnc4n3)c2)o1 [Compound 95] | 0.188 | 0.069 | 
CC(C)OC(=O)Nc1cnc2nc(-c3cc([N+](=O)[O-])ccc3F)cn2c1 [Compound 19, isopropyl (2-(2-fluoro-5-nitrophenyl)imidazo[1,2-a]pyrimidin-6-yl)carbamate] | 46.9 | 19.1 | 
CC(C)OC(=O)Nc1cnc2nc(-c3cc(NC(=O)c4cccn4C)ccc3F)cn2c1 [Compound 73] | 15.2 | 1.29 | 
CC(C)OC(=O)Nc1cnc2nc(-c3cc(NC(=O)c4cnc(Br)s4)ccc3F)cn2c1 [Compound 91] | 24.1 | 4.61 | 
CC1=C(C(=O)Nc2cnc3nc(-c4cc(NC(=O)N5CCCC5)ccc4F)cn3c2)OCCO1 [Compound 122] |  | 0.08 | 
Cc1nc(C)c(C(=O)Nc2ccc(F)c(-c3cn4cc(NC(=O)OC(C)C)cnc4n3)c2)o1 [Compound 61] | 0.715 | 0.245 | 
CC(C)OC(=O)Nc1cnc2nc(-c3cc(NC(=O)N(C)C)ccc3F)cn2c1 [Compound 219] | 2.15 | 0.752 | 
CC(C)OC(=O)NCc1cnc2nc(-c3cc(NC(=O)c4ccc(F)o4)ccc3F)cn2c1 [Compound 207] | > 40.3 | 7.14 | 
CC(=O)N[C@@H]1CCN(C(=O)Nc2ccc(Cl)c(-c3cn4cc(NC(=O)OC(C)C)cnc4n3)c2)C1 [Compound 271] | > 50 | > 25 | 
CC(C)OC(=O)Nc1cnc2nc(-c3cccc(NC(=O)c4ccco4)c3)cn2c1 [Compound 8] | 4.7 | 1.59 | 
CC(C)OC(=O)Nc1cnc2nc(-c3cc(NC(=O)c4cc5cc(Cl)ccc5[nH]4)ccc3F)cn2c1 [Compound 89] | > 50 | > 25 | 
Cc1nc(C)c(C(=O)Nc2ccc(F)c(-c3cn4cc(CC(C)(C)C)cnc4n3)c2)o1 [Compound 591] |  |  | EC50 [1, 6]: > 50 µM; EC50 ([2]; L. donovani axenic amastigotes): 0.028 µM
CN(CC(F)(F)F)C(=O)Nc1ccc(F)c(-c2cn3cc(-c4ccccc4)cnc3n2)c1 [Compound 325] | 0.722 | 0.154 | 
CC(C)OC(=O)Nc1cnc2nc(-c3cccc(NC(=O)c4cnccn4)c3)cn2c1 [Compound 7] | 1.86 | 2.53 | 
Cc1nc(C)c(C(=O)Nc2ccc(F)c(-c3cn4cc(CC(C)C)cnc4n3)c2)o1 [Compound 590, N-(4-fluoro-3-(6-isobutylimidazo[1,2-a]pyrimidin-2-yl)phenyl)-2,4-dimethyloxazole-5-carboxamide] |  |  | EC50 [1, 6]: 0.045 µM; EC50 ([2]; L. donovani axenic amastigotes): 0.024 µM
CNc1ccc(-c2cnc3nc(-c4cc(NC(=O)OCCOC)ccc4Cl)cn3c2)cc1 [Compound 36] | 1.28 | 0.56 | 
CC(C)OC(=O)Nc1cnc2nc(-c3cc(NC(=O)N4CCC4C(=O)O)ccc3F)cn2c1 (centres unmarked) [Compound 295] | > 50 | > 25 | 
CC(C)OC(=O)Nc1cnc2nc(-c3cc(NC(=O)N4CCCC4)ccc3Cl)c(F)n2c1 [Compound 15, isopropyl (2-(2-chloro-5-(pyrrolidine-1-carboxamido)phenyl)-3-fluoroimidazo[1,2-a]pyrimidin-6-yl)carbamate] | 2.95 | 1.5 | 
Cc1nc(C)c(C(=O)Nc2ccc(F)c(-c3cn4cc(CC5OCCO5)cnc4n3)c2)o1 [Compound 614] |  |  | EC50 [1, 6]: > 50 µM; EC50 ([2]; L. donovani axenic amastigotes): 0.389 µM
CCNC(=O)Nc1ccc(Cl)c(-c2cn3cc(NC(=O)OC(C)C)cnc3n2)c1 [Compound 254] | > 18.3 | 6.9 | 
Cc1nc(C)c(C(=O)Nc2ccc(F)c(-c3cn4cc(CN5CCOCC5)cnc4n3)c2)o1 [Compound 616, N-(4-fluoro-3-(6-(morpholinomethyl)imidazo[1,2-a]pyrimidin-2-yl)phenyl)-2,4-dimethyloxazole-5-carboxamide] |  |  | EC50 [1, 6]: > 50 µM; EC50 ([2]; L. donovani axenic amastigotes): 0.602 µM
CC(C)OC(=O)Nc1cnc2nc(-c3cc(NC(=O)c4cocn4)ccc3F)cn2c1 [Compound 65] | 9.13 | 2.04 | 

SMILES | EC50 [1, 4] [µM] | EC50 [2, 5] [µM] | also measured
Cc1nc(C(=O)Nc2ccc(F)c(-c3cn4cc(NC(=O)OC(C)C)cnc4n3)c2)c(C)o1 [Compound 62] | 11.6 | 2 | 
CC(C)OC(=O)Nc1cnc2nc(-c3cc(NC(=O)c4ncco4)ccc3F)cn2c1 [Compound 99] | 9.92 | 2.98 | 
COCCOC(=O)Nc1cccc(-c2cn3cc(NC(=O)OC(C)C)cnc3n2)c1 [Compound 23] | 24.7 | 7.3 | 
Cc1nc(C)c(C(=O)Nc2ccc(F)c(-c3cn4cc(-c5cnoc5)cnc4n3)c2)o1 [Compound 367] | > 50 | > 25 | 
Cc1nc(C)c(C(=O)Nc2ccc(F)c(-c3cn4cc(C5C6CCCC5C6)cnc4n3)c2)o1 (centres unmarked) [Compound 615] |  |  | EC50 ([2]; L. donovani axenic amastigotes): 0.082 µM
CC(C)OC(=O)Nc1cnc2nc(-c3cc(NC(=O)c4cc5cccc(F)c5[nH]4)ccc3F)cn2c1 [Compound 93] | > 50 | > 25 | 
CC(C)OC(=O)Nc1cnc2nc(-c3cc(NC(=O)c4cnc(Cl)[nH]4)ccc3F)cn2c1 [Compound 100] | > 50 | > 25 | 
Cc1nc(C)c(C(=O)Nc2ccc(F)c(-c3cn4cc(CC5CCC5)cnc4n3)c2)o1 [Compound 613, N-(3-(6-(cyclobutylmethyl)imidazo[1,2-a]pyrimidin-2-yl)-4-fluorophenyl)-2,4-dimethyloxazole-5-carboxamide] |  |  | EC50 [1, 6]: > 50 µM; EC50 ([2]; L. donovani axenic amastigotes): 0.03 µM
Cc1nc(C)c(C(=O)Nc2ccc(F)c(-c3cn4cc(-c5ncccc5C(F)F)cnc4n3)c2)o1 [Compound 588] |  |  | EC50 [1, 6]: 0.459 µM; EC50 ([2]; L. donovani axenic amastigotes): 0.019 µM
O=C(Nc1ccc(Cl)c(-c2cn3cc(-c4ccccc4)cnc3n2)c1)N1CCCC1 [Compound 29] | 0.152 | 0.036 | 
CC(C)OC(=O)Nc1ccc(-c2cnc3nc(-c4cc(NC(=O)N5CCCC5)ccc4F)cn3c2)cc1 [Compound 340] | 2.12 | 0.707 | 
O=C(Nc1ccc(F)c(-c2cn3cc(C(F)(F)F)cnc3n2)c1)N1CC(F)C1 [Compound 587, 3-fluoro-N-(4-fluoro-3-(6-(trifluoromethyl)imidazo[1,2-a]pyrimidin-2-yl)phenyl)azetidine-1-carboxamide] |  |  | EC50 [1, 6]: 0.647 µM; EC50 ([2]; L. donovani axenic amastigotes): 0.073 µM
O=C(Nc1ccc(F)c(-c2cn3cc(-c4ccnc(C(F)(F)F)c4)cnc3n2)c1)N1CCCC1 [Compound 341] | 9.43 | 2.6 | 
CC(C)OC(=O)Nc1cnc2nc(-c3cc(NC(=O)N4CC(S(C)(=O)=O)C4)ccc3F)cn2c1 [Compound 292] | > 43.5 | > 25 | 
CC(C)OC(=O)Nc1cnc2nc(-c3cc(NC(=O)c4cnc(N)o4)ccc3F)cn2c1 [Compound 94] | > 50 | > 25 | 
CC(C)OC(=O)Nc1cnc2nc(-c3cc(NC(=O)c4ccc[nH]4)ccc3F)cn2c1 [Compound 71] | 3.23 | 1.89 | 
CC(C)OC(=O)Nc1cnc2nc(-c3cc(NC(=O)N4CCCC4)ccc3F)cn2c1 [Compound 17] | 0.35 | 0.41 | 
Cc1nc(C)c(C(=O)Nc2ccc(F)c(-c3cn4cc(CN(C)C)cnc4n3)c2)o1 [Compound 617] |  |  | EC50 ([2]; L. donovani axenic amastigotes): 3.44 µM
Cc1nc(C)c(C(=O)Nc2ccc(F)c(-c3cn4cc(C(C)N(C)C)cnc4n3)c2)o1 (centres unmarked) [Compound 619] |  |  | EC50 [1, 6]: 0.929 µM; EC50 ([2]; L. donovani axenic amastigotes): 6.35 µM
Cc1nc(C)c(C(=O)Nc2ccc(F)c(-c3cn4cc(C(C)N5CCOCC5)cnc4n3)c2)o1 (centres unmarked) [Compound 618, N-(4-fluoro-3-(6-(1-morpholinoethyl)imidazo[1,2-a]pyrimidin-2-yl)phenyl)-2,4-dimethyloxazole-5-carboxamide] |  |  | EC50 [1, 6]: 0.691 µM; EC50 ([2]; L. donovani axenic amastigotes): 0.903 µM
Cc1nc(C)c(C(=O)Nc2ccc(F)c(-c3cn4cc(-c5ncccc5C(F)(F)F)cnc4n3)c2)o1 [Compound 589] |  |  | EC50 [1, 6]: 0.375 µM; EC50 ([2]; L. donovani axenic amastigotes): 0.022 µM
CON(C)C(=O)Nc1cccc(-c2cn3cc(NC(=O)OC(C)C)cnc3n2)c1 [Compound 14] |  |  | EC50 ([1]; inhibition of proliferation): 3.2 µM
CC(C)OC(=O)Nc1cnc2nc(-c3cc(NC(=O)N4CC(F)(F)C4)ccc3F)cn2c1 [Compound 289] | 0.321 | 0.141 | 
COC(=O)CN1CCC(c2cnc3nc(-c4cc(NC(=O)c5oc(C)nc5C)ccc4F)cn3c2)CC1 [Compound 539, methyl 2-(4-(2-(5-(2,4-dimethyloxazole-5-carboxamido)-2-fluorophenyl)imidazo[1,2-a]pyrimidin-6-yl)piperidin-1-yl)acetate] |  |  | EC50 ([2]; L. donovani axenic amastigotes): 0.975 µM; EC50 [3]: 0.381 µM
CC(C)OC(=O)Nc1cnc2nc(-c3cc(NC(=O)c4ccc(C#N)o4)ccc3F)cn2c1 [Compound 107] | 0.298 | 0.084 | 
CC(C)OC(=O)Nc1cnc2nc(-c3cc(NC(=O)c4ccc(Cl)o4)ccc3F)cn2c1 [Compound 64, isopropyl (2-(5-(5-chlorofuran-2-carboxamido)-2-fluorophenyl)imidazo[1,2-a]pyrimidin-6-yl)carbamate] | 0.469 | 0.161 | 
